Assays:
OCI-AML2 cells = assay: Western blot of SF3B1, Mcl-1S and Mcl-1L protein expression; assay type: cell-based, human
Method: Cells were plated at 2.5×10^5 cells per ml in 6-well plates and treated with drug, vehicle or siRNA at the indicated doses and time points. Cells were harvested, washed with PBS and lysed prior to preparation of protein extracts for western blotting.
More particularly, cells were lysed with RIPA buffer (#R0278, Sigma, St. Louis, Mo., United States of America) containing phosphatase inhibitor cocktails 2 and 3 (Sigma #P5726, #P0044) and protease inhibitor cocktail (#P8340, Sigma, St. Louis, Mo., United States of America). Protein was quantified using a bicinchoninic acid (BCA) protein assay kit (#23225, Pierce, Waltham, Mass., United States of America). Samples were resolved on a Bolt 4-12% SDS-PAGE gel (#NW00082, ThermoFisher Scientific, Waltham, Mass., United States of America) and transferred to PVDF membrane (#170-4274, Bio-Rad Laboratories, Hercules, Calif., United States of America). Antibodies were obtained from Cell Signaling Technology (Danvers, Mass., United States of America) unless indicated otherwise. Primary antibodies used were: Mcl-1 (#5453, RRID #AB 10694494), SF3B1 (#14434, RRID #AB 2798479), β-actin (#3700, RRID #AB_2242334) and AC (BD Biosciences #612302 (San Jose, California, United States of America), RRID #AB_399617). Secondary antibodies used were HRP-linked goat anti-mouse (#7076, RRID #AB_330924) or goat anti-rabbit IgG (#7074, RRID # AB_2099233). Clarity Max Western ECL Substrate (#1705062, Bio-Rad Laboratories, Hercules, Calif., United States of America) was added to visualize relative protein expression by chemiluminescence using the Bio-Rad ChemiDoc MP imaging system (Bio-Rad Laboratories, Hercules, Calif., United States of America). Quantification was done using Bio-Rad ImageLab 6.0.1 software (Bio-Rad Laboratories, Hercules, Calif., United States of America). For quantification, bands were normalized to β-actin as a loading control.

acid ceramidase (AC) = molecular target: T1, acid ceramidase (AC) (Homo sapiens, UniProt Q13510); assay: Acid ceramidase activity assay (RBM14C12 fluorogenic substrate) in human AML cell lines; assay type: cell-based; conditions: LCL204 5 or 10 μM vs SACLAC 1.25 or 2.5 μM; HL-60/VCR, THP-1, OCI-AML2
T1 construct: endogenous in cells; host or cells: HL-60/VCR, THP-1 and OCI-AML2 human AML cell lines
T1 sequence (Q13510 143-395 limits assumed): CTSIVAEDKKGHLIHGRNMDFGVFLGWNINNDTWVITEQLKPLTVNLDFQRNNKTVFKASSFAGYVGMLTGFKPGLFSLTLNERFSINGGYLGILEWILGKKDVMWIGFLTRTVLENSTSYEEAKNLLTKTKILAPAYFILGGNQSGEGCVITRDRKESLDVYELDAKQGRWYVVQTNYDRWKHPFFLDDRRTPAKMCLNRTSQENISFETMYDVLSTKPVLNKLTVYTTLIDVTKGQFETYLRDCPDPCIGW
T1 sequence (Q13510 22-142 limits assumed): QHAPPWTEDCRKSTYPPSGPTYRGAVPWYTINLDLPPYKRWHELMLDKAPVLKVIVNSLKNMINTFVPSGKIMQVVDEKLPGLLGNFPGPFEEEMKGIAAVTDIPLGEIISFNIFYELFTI
Method: Cells were seeded at 2×10^4 cells per well in 50 μl Acid ceramidase activity was measured at 24 hours using the RBM14C12 fluorogenic substrate as previously described (22,34).

hAML cell lines = assay: Venetoclax sensitivity of hAML cell lines; assay type: cell-based, human; conditions: sensitive (MV4-11, MOLM-13, OCL-AML2) vs resistant (MM-6, THP-1, HL-60/VCR, OCI-AML3)
Method: Venetoclax sensitive cell lines can be co-treated with SACLAC (0.3 to 2.5 μM) and venetoclax (1 to 32 nM). […] Cell viability can be determined by MTS assay 24 hours after treatment. CompuSyn software (ComboSyn Inc., Paramus, N.J., United States of America) can be used to determine synergy. A combination index (CI) of >1, 1, and <1 indicates antagonism, additive effect, and synergism, respectively, with increasing synergism indicated by values approaching zero.

## CN(C)CC[C@H](CSc1ccccc1)Nc1ccc(S(=O)(=O)NC(=O)c2ccc(N3CCN(Cc4ccccc4-c4ccc(Cl)cc4)CC3)cc2)cc1[N+](=O)[O-] [ABT-737, 4-[4-[[2-(4-chlorophenyl)phenyl]methyl]piperazin-l-yl]-N-[4-[[(2R)-4-(dimethylamino)-1-phenylsulfanylbutan-2-yl]amino]-3-nitrophenyl]sulfonylbenzamide, reference compound]
OCI-AML2 cells; ABT-737 75 nM, 24 hours, abrogated by Z-VAD-FMK 50 μM
  Mcl-1 cleavage fragment (caspase-mediated): smaller fragment of approximately 22 kDa

## CCCCCCCCCCCCC/C=C/[C@@H](O)[C@H](CO)NC(=O)CCCCCCCCCCCCCCC [C16 ceramide, reference compound]
OCI-AML2 cells; C16 ceramide 20 μM, 48 hours
  SF3B1 protein: reduction
  ratio of Mcl-1S to Mcl-1L: increase

## CCCCCCCCCCCCCCN[C@H](CO)[C@H](O)c1ccc([N+](=O)[O-])cc1 [LCL204, (1R, 2R)-2-N-(tetradecylamino)-1-(4′-nitrophenyl)-1,3-propandiol, reference compound]
Acid ceramidase (AC)
  dose required to achieve similar AC inhibition as SACLAC: four-fold higher dose

## CO[C@]1(C)C[C@@]2(CO2)[C@H](O)[C@@H](/C=C/C(C)=C/C[C@@H]2O[C@H](C)[C@H](NC(=O)/C=C\[C@H](C)OC(C)=O)C[C@@H]2C)O1 [Spliceostatin A, reference compound]
OCI-AML2 cells; 5, 10 or 20 nM, 6 hours
  Mcl-1S protein: dose-dependent increase

## CC1(C)CCC(CN2CCN(c3ccc(C(=O)NS(=O)(=O)c4ccc(NCC5CCOCC5)c([N+](=O)[O-])c4)c(Oc4cnc5[nH]ccc5c4)c3)CC2)=C(c2ccc(Cl)cc2)C1 [Venetoclax]
hAML cell lines
  difference in sensitivity between venetoclax sensitive and resistant cell lines: > 100 fold
